The record followed here is ChEMBL document CHEMBL5370655.

Activity calls are given as the source filed them. The calls are words filed in the database; no cut-off is given here.

Series [1] deals with Epidermal growth factor receptor (Homo sapiens, UniProt P00533, L858R/T790M). Put plainly: Inhibition of EGFR L858R/T790M double mutant (unknown origin) using polyE4Y1 as substrate incubated for 5 mins with compound followed by substrate addition measured after 60 mins in presence of ATP by ADP-Glo reagent based assay. (In ADP-Glo the light output rises with the ADP produced.)

Series [2] is described as follows: Cmax in Sprague-Dawley rat at 50 mg/kg, po measured upto 24 hrs by HPLC-MS/MS analysis. The settings on record: in vivo. The format is ADME, organism-based. Further details: dose 50 mg/kg, time < 24 hrs, route po.
The nature of series [3]: Toxicity in BALB/c mouse xenografted with human H1975-TM cells assessed as appearance of lesions in kidney at 25 to 100 mg/kg, po measured after 25 days by hematoxylin-eosin staining based analysis. The format is organism-based. The settings on record: in vivo, 600 h, dose 25-100 mg/kg, time 25 day.
The nature of series [4]: Toxicity in BALB/c mouse xenografted with human H1975-TM cells assessed as change in body weight at 25 to 100 mg/kg, po measured after 25 days. It is filed as organism-based. The settings on record: in vivo, 600 h, dose 25-100 mg/kg, time 25 day. (A xenograft is tissue or cells of one species grown in another, often human tumour cells in immunodeficient mice.)
Series [5] has as its target Epidermal growth factor receptor (Homo sapiens, UniProt P00533, C797S/L858R/T790M).
For series [6], the system named is H1975-TM. Put plainly: Downregulation of EGFR phosphorylation in human H1975-TM cells at 50 to 1000 nM measured after 24 hrs by Western blot analysis. The format is functional, cell-based. The settings on record: dose 50-1000 nM. Background: Immunoblotting shows a protein as a band on a membrane.
Series [7] concerns H1975-TM. Put plainly: Downregulation of ERK level in human H1975-TM cells at 50 to 1000 nM measured after 24 hrs by Western blot analysis. The settings on record: dose 50-1000 nM. The format is functional, cell-based.
A short description of series [8]: Induction of cell cycle arrest in human H1975-TM cells assessed as accumulation at G0/G1 phase at 500 nM measured after 24 hrs by RNase A/propidium iodide staining based flow cytometric analysis (reference value: 64.3 %). It is filed as functional.
A short description of series [9]: Induction of cell cycle arrest in human H1975-TM cells assessed as accumulation at S phase at 250 nM measured after 24 hrs by RNase A/propidium iodide staining based flow cytometric analysis (reference value: 18.1 %). The format is functional.
Series [10] concerns PC-9. Put plainly: Antiproliferative activity against human PC-9 cells assessed as inhibition of cell growth measured after 72 hrs by CCK8 assay. The settings on record: PC-9, 72 h. The format is functional, cell-based.
Series [11] addresses Epidermal growth factor receptor (Homo sapiens, UniProt P00533, C797S/EX19DEL/T790M).

Epidermal growth factor receptor (Homo sapiens, UniProt P00533, L858R/T790M), sequence (P00533 25-1210 T790M/L858R limits assumed): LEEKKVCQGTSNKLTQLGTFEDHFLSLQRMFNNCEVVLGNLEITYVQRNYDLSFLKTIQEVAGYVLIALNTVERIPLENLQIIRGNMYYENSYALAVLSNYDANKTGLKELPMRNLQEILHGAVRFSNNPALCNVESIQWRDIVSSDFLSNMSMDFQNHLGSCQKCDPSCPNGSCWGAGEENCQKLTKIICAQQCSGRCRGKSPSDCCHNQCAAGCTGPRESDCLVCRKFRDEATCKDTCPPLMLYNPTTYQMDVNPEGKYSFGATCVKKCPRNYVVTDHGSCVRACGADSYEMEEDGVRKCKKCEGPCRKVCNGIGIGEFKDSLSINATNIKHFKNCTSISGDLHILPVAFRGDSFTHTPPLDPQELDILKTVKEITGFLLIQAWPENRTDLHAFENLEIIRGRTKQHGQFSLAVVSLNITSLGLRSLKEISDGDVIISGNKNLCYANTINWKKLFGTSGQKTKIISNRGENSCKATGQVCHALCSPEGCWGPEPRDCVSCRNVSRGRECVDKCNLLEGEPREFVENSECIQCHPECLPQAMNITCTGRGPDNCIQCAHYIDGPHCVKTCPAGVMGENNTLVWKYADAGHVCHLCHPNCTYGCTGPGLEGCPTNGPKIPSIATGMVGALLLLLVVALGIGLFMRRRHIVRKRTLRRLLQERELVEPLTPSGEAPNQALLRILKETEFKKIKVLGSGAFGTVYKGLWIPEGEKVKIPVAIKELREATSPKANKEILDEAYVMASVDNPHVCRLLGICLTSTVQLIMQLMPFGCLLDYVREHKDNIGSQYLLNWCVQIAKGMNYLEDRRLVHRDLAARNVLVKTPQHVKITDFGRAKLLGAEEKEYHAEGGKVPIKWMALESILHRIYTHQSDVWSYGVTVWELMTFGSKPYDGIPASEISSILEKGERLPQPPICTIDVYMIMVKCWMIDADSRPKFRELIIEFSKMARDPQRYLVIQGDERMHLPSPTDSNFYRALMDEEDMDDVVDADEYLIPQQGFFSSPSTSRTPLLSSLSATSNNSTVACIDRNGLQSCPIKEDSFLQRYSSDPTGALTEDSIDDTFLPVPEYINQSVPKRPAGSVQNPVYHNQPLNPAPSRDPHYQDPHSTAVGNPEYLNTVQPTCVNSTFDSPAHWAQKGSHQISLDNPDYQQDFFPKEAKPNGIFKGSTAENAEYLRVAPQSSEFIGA
Epidermal growth factor receptor (Homo sapiens, UniProt P00533, C797S/L858R/T790M), sequence (P00533 25-1210 T790M/C797S/L858R limits assumed): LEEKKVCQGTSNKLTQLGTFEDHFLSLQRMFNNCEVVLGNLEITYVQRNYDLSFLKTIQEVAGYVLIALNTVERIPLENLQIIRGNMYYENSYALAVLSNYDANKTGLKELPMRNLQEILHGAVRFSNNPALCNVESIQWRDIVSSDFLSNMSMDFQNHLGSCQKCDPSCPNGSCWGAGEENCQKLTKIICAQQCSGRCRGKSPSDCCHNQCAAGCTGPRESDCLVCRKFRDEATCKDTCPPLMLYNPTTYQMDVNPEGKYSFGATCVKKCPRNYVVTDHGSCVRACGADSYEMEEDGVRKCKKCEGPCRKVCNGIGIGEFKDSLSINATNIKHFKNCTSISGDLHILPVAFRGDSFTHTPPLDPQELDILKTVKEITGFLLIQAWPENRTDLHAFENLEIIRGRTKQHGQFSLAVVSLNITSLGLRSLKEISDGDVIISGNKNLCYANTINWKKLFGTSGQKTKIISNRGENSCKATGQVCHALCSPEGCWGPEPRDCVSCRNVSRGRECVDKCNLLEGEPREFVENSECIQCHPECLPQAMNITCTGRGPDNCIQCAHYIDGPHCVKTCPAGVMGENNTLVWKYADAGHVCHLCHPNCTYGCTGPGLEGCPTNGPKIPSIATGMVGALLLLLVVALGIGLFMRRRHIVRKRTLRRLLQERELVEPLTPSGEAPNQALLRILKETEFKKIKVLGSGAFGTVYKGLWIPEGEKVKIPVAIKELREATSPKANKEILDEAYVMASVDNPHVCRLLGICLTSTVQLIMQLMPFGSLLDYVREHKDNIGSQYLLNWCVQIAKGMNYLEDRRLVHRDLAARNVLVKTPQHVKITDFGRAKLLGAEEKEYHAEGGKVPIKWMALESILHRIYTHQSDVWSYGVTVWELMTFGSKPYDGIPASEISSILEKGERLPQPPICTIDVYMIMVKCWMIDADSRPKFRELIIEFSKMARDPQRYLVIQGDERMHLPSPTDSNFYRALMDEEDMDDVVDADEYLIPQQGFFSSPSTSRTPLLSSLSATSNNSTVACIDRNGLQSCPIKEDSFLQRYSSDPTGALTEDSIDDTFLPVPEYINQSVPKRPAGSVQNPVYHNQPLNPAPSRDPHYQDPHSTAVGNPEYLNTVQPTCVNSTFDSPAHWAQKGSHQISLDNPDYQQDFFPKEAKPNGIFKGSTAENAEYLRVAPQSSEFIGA
Epidermal growth factor receptor (Homo sapiens, UniProt P00533, C797S/EX19DEL/T790M), sequence (P00533 whole entry, looked up, stated change not applied): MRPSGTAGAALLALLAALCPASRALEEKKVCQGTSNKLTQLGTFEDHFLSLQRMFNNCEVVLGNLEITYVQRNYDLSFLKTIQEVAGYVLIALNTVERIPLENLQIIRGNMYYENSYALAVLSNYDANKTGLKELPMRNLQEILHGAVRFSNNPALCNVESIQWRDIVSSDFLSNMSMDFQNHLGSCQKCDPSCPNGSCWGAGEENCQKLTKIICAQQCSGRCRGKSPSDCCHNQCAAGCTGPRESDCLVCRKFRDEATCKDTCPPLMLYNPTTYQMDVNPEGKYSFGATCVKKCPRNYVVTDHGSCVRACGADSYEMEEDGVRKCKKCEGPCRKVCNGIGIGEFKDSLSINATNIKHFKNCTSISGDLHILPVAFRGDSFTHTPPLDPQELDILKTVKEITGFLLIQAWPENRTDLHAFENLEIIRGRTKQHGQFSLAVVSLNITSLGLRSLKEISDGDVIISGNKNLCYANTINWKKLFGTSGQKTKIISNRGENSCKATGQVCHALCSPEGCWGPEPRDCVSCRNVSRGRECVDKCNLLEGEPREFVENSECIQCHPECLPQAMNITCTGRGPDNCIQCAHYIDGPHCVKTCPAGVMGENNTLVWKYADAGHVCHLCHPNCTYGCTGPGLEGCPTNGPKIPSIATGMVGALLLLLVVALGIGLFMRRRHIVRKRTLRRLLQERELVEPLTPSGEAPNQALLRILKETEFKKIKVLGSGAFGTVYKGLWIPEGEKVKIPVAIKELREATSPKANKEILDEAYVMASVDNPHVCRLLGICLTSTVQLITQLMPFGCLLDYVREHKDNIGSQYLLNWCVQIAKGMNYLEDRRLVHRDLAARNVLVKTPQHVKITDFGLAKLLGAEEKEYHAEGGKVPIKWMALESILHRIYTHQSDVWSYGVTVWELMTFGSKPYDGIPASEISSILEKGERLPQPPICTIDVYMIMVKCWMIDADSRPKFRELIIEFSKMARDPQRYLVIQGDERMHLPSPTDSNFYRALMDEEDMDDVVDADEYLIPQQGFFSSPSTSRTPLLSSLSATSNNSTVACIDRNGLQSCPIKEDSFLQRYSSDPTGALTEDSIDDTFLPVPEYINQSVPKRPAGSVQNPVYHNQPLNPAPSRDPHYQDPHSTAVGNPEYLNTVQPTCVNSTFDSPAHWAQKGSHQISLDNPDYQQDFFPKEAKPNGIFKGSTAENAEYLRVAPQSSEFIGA

As a reminder, the IC50 is the point on the concentration scale where inhibition reaches its midpoint. A word on the Cmax: it is the highest concentration seen after dosing. In the case of `CCS(=O)(=O)N1CCC(c2nc(-c3ccc(F)cc3)c(-c3ccnc(Nc4ccc5c(ccn5CCN(C)C)c4)n3)s2)CC1`, the IC50 is 21 nM in series [1], 5.1 nM in series [5], 5 nM in series [10] and 33 nM in series [11]. For the same compound, in [2], the Cmax stood at 404 ng/mL. Besides, the Activity entry is given as “Non-Toxic” in series [3], “Non-Toxic” in [4], 76.3% in series [8] and 15.7% in series [9]. The result in series [6] and in [7] was Active.
